From patent US11807644B2 (PMV Pharmaceuticals, Inc., priority 2020, dated 2023)

molecular target: T1, recombinant His-tag Y220C p53 DBD protein (Homo sapiens, UniProt P04637, Y220C); assay: In vitro DNA binding activity assay (TR-FRET): binding of His-tag Y220C p53 DBD to biotin-labeled consensus DNA; type: biochemical; conditions: SC150 = concentration to increase DNA binding by […], His-tag Y220C p53 DBD, biotin-labeled consensus DNA
T1 construct: recombinant His-tag Y220C p53 DBD protein (amino acids #˜94-312)

Row | SMILES | Y220C SC150 (μM)
1 | CN1CC[C@@H](Nc2cccc3c2cc(-c2nnc(CNC(=O)C4CC4)s2)n3CC(F)(F)F)[C@@H](F)C1 [Compound 47B, N-{[5-(4-{[(3S,4R)-3-fluoro-1-methylpiperidin-4-yl]amino}-1-(2,2,2-trifluoroethyl)-1H-indol-2-yl)-1,3,4-thiadiazol-2-yl]methyl}cyclopropanecarboxamide] | * (* = 0 μM ≤ SC150 < 0.1 μM)
2 | CN1CC[C@H](Nc2cccc3c2cc(-c2nnc(CNC(=O)C4CC4)s2)n3CC(F)(F)F)[C@H](F)C1 [Compound 48B, N-{[5-(4-{[(3R,4S)-3-fluoro-1-methylpiperidin-4-yl]amino}-1-(2,2,2-trifluoroethyl)-1H-indol-2-yl)-1,3,4-thiadiazol-2-yl]methyl}cyclopropanecarboxamide] | * (* = 0 μM ≤ SC150 < 0.1 μM)
3 | CN1CCC(Nc2cccc3c2cc(-c2nnc(CNC(=O)c4ccncc4)s2)n3CC(F)(F)F)CC1 [Compound 49B, N-[(5-{4-[(1-methylpiperidin-4-yl)amino]-1-(2,2,2-trifluoroethyl)-1H-indol-2-yl}-1,3,4-thiadiazol-2-yl)methyl]pyridine-4-carboxamide] | ** (** = 0.1 μM ≤ SC150 < 0.5 μM)
4 | CN1CCC(Nc2cccc3c2cc(-c2nnc(CNC(=O)c4ccccc4F)s2)n3CC(F)(F)F)CC1 [Compound 50B, 2-fluoro-N-[(5-{4-[(1-methylpiperidin-4-yl)amino]-1-(2,2,2-trifluoroethyl)-1H-indol-2-yl}-1,3,4-thiadiazol-2-yl)methyl]benzamide] | ** (** = 0.1 μM ≤ SC150 < 0.5 μM)
5 | CN1CCC(Nc2cccc3c2cc(-c2nnc(CNC(=O)c4cccc(F)c4)s2)n3CC(F)(F)F)CC1 [Compound 51B, 3-fluoro-N-[(5-{4-[(1-methylpiperidin-4-yl)amino]-1-(2,2,2-trifluoroethyl)-1H-indol-2-yl}-1,3,4-thiadiazol-2-yl)methyl]benzamide] | * (* = 0 μM ≤ SC150 < 0.1 μM)
6 | CN1CCC(Nc2cccc3c2cc(-c2nnc(CNC(=O)c4ccc(F)cc4)s2)n3CC(F)(F)F)CC1 [Compound 52B, 4-fluoro-N-[(5-{4-[(1-methylpiperidin-4-yl)amino]-1-(2,2,2-trifluoroethyl)-1H-indol-2-yl}-1,3,4-thiadiazol-2-yl)methyl]benzamide] | * (* = 0 μM ≤ SC150 < 0.1 μM)
7 | CN1CCC(Nc2cccc3c2cc(-c2nnc(CNC(=O)c4ccc(C(=O)O)cc4)s2)n3CC(F)(F)F)CC1 [Compound 54B, 4-{[(5-{4-[(1-methylpiperidin-4-yl)amino]-1-(2,2,2-trifluoroethyl)-1H-indol-2-yl}-1,3,4-thiadiazol-2-yl)methyl]carbamoyl}benzoic acid] | ** (** = 0.1 μM ≤ SC150 < 0.5 μM)

Results, then the molecule that gave them:

Row | Y220C SC150 (μM) | SMILES
8 | ** (** = 0.1 μM ≤ SC150 < 0.5 μM) | CN1CCC(Nc2cccc3c2cc(-c2nnc(CNC(=O)c4ccc5[nH]ncc5c4)s2)n3CC(F)(F)F)CC1 [Compound 55B, N-[(5-{4-[(1-methylpiperidin-4-yl)amino]-1-(2,2,2-trifluoroethyl)-1H-indol-2-yl}-1,3,4-thiadiazol-2-yl)methyl]-1H-indazole-5-carboxamide]
9 | ** (** = 0.1 μM ≤ SC150 < 0.5 μM) | CNC(=O)NCc1nnc(-c2cc3c(NC4CCN(C)CC4)cccc3n2CC(F)(F)F)s1 [Compound 56B, 3-methyl-1-[(5-{4-[(1-methylpiperidin-4-yl)amino]-1-(2,2,2-trifluoroethyl)-1H-indol-2-yl}-1,3,4-thiadiazol-2-yl)methyl]urea]
10 | ** (** = 0.1 μM ≤ SC150 < 0.5 μM) | CC(C)C(=O)NCc1nnc(-c2cc3c(NC4CCN(C)CC4)cccc3n2CC(F)(F)F)s1 [Compound 57B, 2-methyl-N-[(5-{4-[(1-methylpiperidin-4-yl)amino]-1-(2,2,2-trifluoroethyl)-1H-indol-2-yl}-1,3,4-thiadiazol-2-yl)methyl]propanamide]
11 | ** (** = 0.1 μM ≤ SC150 < 0.5 μM) | CC(=O)NCc1nnc(-c2cc3c(NC4CCN(C)CC4)cccc3n2CC(F)(F)F)s1 [Compound 58B, N-[(5-{4-[(1-methylpiperidin-4-yl)amino]-1-(2,2,2-trifluoroethyl)-1H-indol-2-yl}-1,3,4-thiadiazol-2-yl)methyl]acetamide]
12 | ** (** = 0.1 μM ≤ SC150 < 0.5 μM) | CN1CCC(Nc2cccc3c2cc(-c2nnc(CNC(=O)Cc4ccccc4)s2)n3CC(F)(F)F)CC1 [Compound 59B, N-[(5-{4-[(1-methylpiperidin-4-yl)amino]-1-(2,2,2-trifluoroethyl)-1H-indol-2-yl}-1,3,4-thiadiazol-2-yl)methyl]-2-phenylacetamide]
13 | ** (** = 0.1 μM ≤ SC150 < 0.5 μM) | COCC(=O)NCc1nnc(-c2cc3c(NC4CCN(C)CC4)cccc3n2CC(F)(F)F)s1 [Compound 60B, 2-methoxy-N-[(5-{4-[(1-methylpiperidin-4-yl)amino]-1-(2,2,2-trifluoroethyl)-1H-indol-2-yl}-1,3,4-thiadiazol-2-yl)methyl]acetamide]
14 | * (* = 0 μM ≤ SC150 < 0.1 μM) | COc1cc(S(C)(=O)=O)ccc1NCc1nnc(-c2cc3c(N[C@H]4CCN(C)C[C@H]4F)cccc3n2CC(F)(F)F)s1 [Compound 61B, N-[(3R,4S)-3-fluoro-1-methylpiperidin-4-yl]-2-(5-{[(4-methanesulfonyl-2-methoxyphenyl)amino]methyl}-1,3,4-thiadiazol-2-yl)-1-(2,2,2-trifluoroethyl)-1H-indol-4-amine]
15 | * (* = 0 μM ≤ SC150 < 0.1 μM) | COc1cc(S(C)(=O)=O)ccc1NCc1nnc(-c2cc3c(N[C@@H]4CCN(C)C[C@@H]4F)cccc3n2CC(F)(F)F)s1 [Compound 62B, N-[(3S,4R)-3-fluoro-1-methylpiperidin-4-yl]-2-(5-{[(4-methanesulfonyl-2-methoxyphenyl)amino]methyl}-1,3,4-thiadiazol-2-yl)-1-(2,2,2-trifluoroethyl)-1H-indol-4-amine]
16 | * (* = 0 μM ≤ SC150 < 0.1 μM) | COc1ccc(C(=O)NCc2nnc(-c3cc4c(NC5CCN(C)CC5)cccc4n3CC(F)(F)F)s2)cc1 [Compound 63B, 4-methoxy-N-[(5-{4-[(1-methylpiperidin-4-yl)amino]-1-(2,2,2-trifluoroethyl)-1H-indol-2-yl}-1,3,4-thiadiazol-2-yl)methyl]benzamide]

same assay, conditions: concentration to increase DNA binding by […], incubated at either 27° C. or 29° C. for 60 min

Row | SC150 (μM) | SMILES
17 | +++ (+++ = 5 μM ≤ SC150 < 10 μM) | COCC(O)CN1CCC(Nc2cccc3c2cc(-c2ccc4c[nH]nc4c2)n3CC(F)(F)F)CC1 (stereo not shown) [Compound 48A, 1-(4-{[2-(2H-indazol-6-yl)-1-(2,2,2-trifluoroethyl)-1H-indol-4-yl]amino}piperidin-1-yl)-3-methoxypropan-2-ol]
18 | ++ (++ = 2 μM ≤ SC150 < 5 μM) | COCC(O)CN1CCC(Nc2cccc3c2cc(-c2ccc4c(c2)NC(=O)C4)n3CC(F)(F)F)CC1 (stereo not shown) [Compound 49A, 4-{[1-(2-hydroxy-3-methoxypropyl)piperidin-4-yl]amino}-1-(2,2,2-trifluoroethyl)-2′,3′-dihydro-1H,1′H-[2,6′-biindol]-2′-one]
19 | ++++ (++++ = 10 μM ≤ SC150 < 35 μM) | COCC(O)CN1CCC(Nc2cccc3c2cc(-c2cccc(NC(C)=O)c2)n3CC(F)(F)F)CC1 (stereo not shown) [Compound 51A, N-[3-(4-{[1-(2-hydroxy-3-methoxypropyl)piperidin-4-yl]amino}-1-(2,2,2-trifluoroethyl)-1H-indol-2-yl)phenyl]acetamide]
